In the NIST ThermoML archive (doi:10.1016/j.fluid.2008.08.007):

Assay: xn = mol fraction of the nth substance listed
Settings: x1 = 0.75; for surface tension liquid-gas: Ring tensiometer; for mass density: 101 kPa, Liquid, westphal balance

[Cl-].[Cl-].[Zn+2] [zinc chloride] + CCCCn1cc[n+](C)c1.[Cl-]
Settings | mass density [kg/m3] | surface tension liquid-gas [mN/m]
318.2 K | 1779.1 | 78.3
323.2 K | 1773.6 | 78
328.2 K | 1766.9 | 77.7
333.2 K | 1758 | 77.2
338.2 K | 1749.2 | 76.8
343.2 K | 1742.1 | 76.4
